Measured values reported in US20240254186A1, “GLP-1 Receptor Agonists Having Improved Pharmacological and Drug Delivery Properties” (priority 2021, published 2024).
Like-named read-outs stand apart in the source and are kept apart here. One block for each compound: values may come before it. Numbered stars: 1 amine (or outer) side, 2 acyl side, 3 side chain; on linkers, the order of the positions; unused ones are H or OH. Square brackets hold non-standard residues; d marks the D form. Side chains are listed from the residue outwards. Peptide text beside a SMILES is read from it. * marks the point of attachment. ξ: configuration not given here. Dap(Nα-HOOC(CH2)16CO)OH = O=C(O)CCCCCCCCCCCCCCCCC(=O)N[C@@H](CN*)C(=O)O; X6 = O=C([C@H](CCc1ccc(OC(=O)[*:3])cc1)N[*:1])[*:2]; Bip = N[C@@H](Cc1ccc(-c2ccccc2)cc1)C(=O)O; C18 diacid = O=C(O)CCCCCCCCCCCCCCCCC(=O)*; Hydrocinnamoyl(4-I) = O=C(CCc1ccc(I)cc1)*; X2 = O=C(CCc1ccc(I)cc1)N[C@@H](CN*)C(=O)O; αMePhe(2-F) = C[C@](N)(Cc1ccccc1F)C(=O)O; ξαMePhe(2-F) = CC(N)(Cc1ccccc1F)C(=O)O; hPhe = N[C@@H](CCc1ccccc1)C(=O)O; αMeF = C[C@](N)(Cc1ccccc1)C(=O)O; αMeP = C[C@@]1(C(=O)O)CCCN1; dDap = NC[C@@H](N)C(=O)O; ξαMeP = CC1(C(=O)O)CCCN1; ξαMeS = CC(N)(CO)C(=O)O; AEEA = NCCOCCOCC(=O)O; Aib = CC(C)(N)C(=O)O

Target: T1, hGLP1 receptor (Homo sapiens, UniProt P43220)
T1 construct: expressed in transfected cells; host or cells: HEK (human embryonic kidney) cells co-expressing hGLP1 receptor and a CRE-Luciferase construct
Test: cAMP HTRF agonist assay in HEK cells co-expressing the hGLP1 receptor and CRE-Luciferase construct
Type: cell-based
Conditions: for potency compared with the parent peptide analog (1-2), in words: replacement of Aib2, versus parent 1-2; for potency relative to the parent peptide (1-4), fold less potent: versus parent 1-4
Method: Human embryonic kidney cells (HEK) co-expressing the hGLP1 receptor and CRE-Luciferase construct were used to determine agonist potency in this assay. The cells were thawed briefly at 37° C., transferred to a sterile tube and re-suspended in complete media at 37° C. Cells were centrifuged at 1000 rpm for 5 minutes and cells collected; cells were re-suspended in assay buffer consisting of DPBS (GIBCO) with 500 μM of the phosphodiesterase inhibitor IBMX. […] The optimal cell density was determined to be 1000 cells/well; cells were added to wells in 384-well plates containing appropriate pre-prepared dilutions of compounds (test peptides or reference compound exendin-4), sealed and incubated with CO2 for 30 min. Test peptide solutions were diluted from 10 mM stock solutions; for most peptides an initial run was performed in duplicate from a maximal concentration of 1.0 μM, with 11 concentrations tested for each peptide using serial 1:3 dilution from this maximal concentration. […] The agonist assay was a homogeneous time-resolved fluorescence (HTRF) assay (Cisbio).
Following incubation of the cells for 30 minutes with test or reference peptides, 5 μL of the cAMP acceptor cAMP-d2, prepared previously as a working solution from frozen stock (1:20 dilution), was added to each well of the assay plate, along with 5 μL of anti-cAMP antibody-cryptate working solution (diluted 1:20 from frozen stock). The wells were incubated for 1 hour at room temperature, and fluorescence was then read at 665 and 615 nm with an Envision reader with TRF laser. Data were saved and analyzed using Prism software (GraphPad). Concentration-response analysis was performed using 4-parameter logistic fits of the resulting data, and EC50 values obtained for each test and reference compound.

[1] = read-out: cAMP EC50, nM (0.1% albumin), Table 6, C-terminal PK-modifier conjugates, 0.1% albumin

T1 sequence (P43220 24-463): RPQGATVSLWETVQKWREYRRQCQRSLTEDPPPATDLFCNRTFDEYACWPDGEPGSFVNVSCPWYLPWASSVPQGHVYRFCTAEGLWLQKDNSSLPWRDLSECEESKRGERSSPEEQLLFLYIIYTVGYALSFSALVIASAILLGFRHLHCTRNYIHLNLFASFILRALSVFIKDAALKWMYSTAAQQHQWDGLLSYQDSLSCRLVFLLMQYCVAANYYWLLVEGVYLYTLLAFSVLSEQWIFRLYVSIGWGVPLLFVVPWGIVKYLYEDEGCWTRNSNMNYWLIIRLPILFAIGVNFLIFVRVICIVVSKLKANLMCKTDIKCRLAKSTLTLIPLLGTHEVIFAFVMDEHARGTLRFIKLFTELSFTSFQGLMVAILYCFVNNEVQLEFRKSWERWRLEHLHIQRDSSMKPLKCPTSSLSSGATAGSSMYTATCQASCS

EC50 (cAMP EC50, nM (0.1% albumin), Table 1, Phe6 modifications, 0.1% albumin): 0.32 nM
SMILES: C[C@@H](O)[C@H](NC(=O)CNC(=O)[C@H](CCC(=O)O)NC(=O)C(C)(C)NC(=O)[C@@H](N)Cc1c[nH]cn1)C(=O)N[C@@](C)(Cc1ccccc1)C(=O)N[C@H](C(=O)N[C@@H](CO)C(=O)N[C@@H](CC(=O)O)C(=O)N[C@@H](Cc1ccc(-c2ccccc2)cc1)C(=O)N[C@@H](Cc1ccc(-c2ccccc2)cc1)C(N)=O)[C@@H](C)O [3-16, H2N-His-Aib-Glu-Gly-Thr-α-MePhe-Thr-Ser-Asp-Bip-Bip-C(O)NH2] (H-H[Aib]EGT[αMeF]TSD[Bip][Bip]-NH2)

EC50 (Table 1, cell annotated (0% albumin), read-out: cAMP EC50): 0.08 nM
SMILES: C[C@@H](O)[C@H](NC(=O)CNC(=O)[C@H](CCC(=O)O)NC(=O)C(C)(C)NC(=O)[C@@H](N)Cc1c[nH]cn1)C(=O)N[C@@](C)(Cc1ccccc1)C(=O)N[C@H](C(=O)N[C@@H](CO)C(=O)N[C@@H](CC(=O)O)C(=O)N[C@@H](Cc1ccc(-c2ccccc2)cc1)C(=O)N[C@@H](Cc1ccc(-c2ccccc2)cc1)C(N)=O)[C@@H](C)O [3-17, H2N-His-Aib-Glu-Gly-Thr-α-MePhe-Thr-Ser-Asp-Bip-Bip-C(O)NH2] (H-H[Aib]EGT[αMeF]TSD[Bip][Bip]-NH2)

potency compared with the parent peptide analog (1-2), in words: slightly less potency
SMILES: CC(C)[C@H](NC(=O)[C@@H](N)Cc1c[nH]cn1)C(=O)N[C@@H](CCC(=O)O)C(=O)NCC(=O)N[C@H](C(=O)N[C@@](C)(Cc1ccccc1F)C(=O)N[C@H](C(=O)N[C@@H](CO)C(=O)N[C@@H](CC(=O)O)C(=O)N[C@@H](Cc1ccc(-c2ccccc2)cc1)C(=O)N[C@@H](Cc1ccc(-c2ccccc2)cc1)C(N)=O)[C@@H](C)O)[C@@H](C)O [3-39, H2N-His-Val-Glu-Gly-Thr-α-MePhe(2-F)-Thr-Ser-Asp-Bip-Bip-C(O)NH2] (H-HVEGT[αMePhe(2-F)]TSD[Bip][Bip]-NH2)

potency compared with the parent peptide analog (1-2), in words: significantly greater potency
SMILES: C[C@@H](O)[C@H](NC(=O)CNC(=O)[C@H](CCC(=O)O)NC(=O)[C@]1(C)CCCN1C(=O)[C@@H](N)Cc1c[nH]cn1)C(=O)N[C@@](C)(Cc1ccccc1F)C(=O)N[C@H](C(=O)N[C@@H](CO)C(=O)N[C@@H](CC(=O)O)C(=O)N[C@@H](Cc1ccc(-c2ccccc2)cc1)C(=O)N[C@@H](Cc1ccc(-c2ccccc2)cc1)C(N)=O)[C@@H](C)O [3-40, H2N-His-α-MePro-Glu-Gly-Thr-α-MePhe(2-F)-Thr-Ser-Asp-Bip-Bip-C(O)NH2] (H-H[αMeP]EGT[αMePhe(2-F)]TSD[Bip][Bip]-NH2)

EC50 (cAMP EC50, nM (0.1% albumin), Table 4, N-terminal modifications, 0.1% albumin): 20.9 nM
SMILES: C[C@@H](O)[C@H](NC(=O)CNC(=O)[C@H](CCC(=O)O)NC(=O)C1(C)CCCN1C(=O)[C@@H](N)Cc1c[nH]cn1)C(=O)NC(C)(Cc1ccccc1F)C(=O)NC(C)(CO)C(=O)N[C@@H](CO)C(=O)N[C@@H](CC(=O)O)C(=O)N[C@@H](Cc1ccc(-c2ccccc2)cc1)C(=O)N[C@@H](Cc1ccc(-c2ccccc2)cc1)C(N)=O (some centres unmarked) [3-59] (H-H[ξαMeP]EGT[ξαMePhe(2-F)][ξαMeS]SD[Bip][Bip]-NH2)

potency relative to the parent peptide (1-4), fold less potent: about 30 fold
SMILES: C[C@@H](O)[C@H](NC(=O)CNC(=O)[C@H](CCC(=O)O)NC(=O)C(C)(C)NC(=O)[C@@H](N)Cc1c[nH]cn1)C(=O)N[C@@](C)(Cc1ccccc1F)C(=O)N[C@H](C(=O)N[C@@H](CO)C(=O)N[C@@H](CC(=O)O)C(=O)N[C@@H](Cc1ccc(-c2ccccc2)cc1)C(=O)N[C@@H](CCc1ccccc1)C(=O)O)[C@@H](C)O [4-1, H2N-His-Aib-Glu-Gly-Thr-α-MePhe(2-F)-Thr-Ser-Asp-Bip-Hph-C(O)OH] (H-H[Aib]EGT[αMePhe(2-F)]TSD[Bip][hPhe]-OH)

potency relative to the parent peptide (1-4), fold less potent: 15 fold
SMILES: C[C@@H](O)[C@H](NC(=O)CNC(=O)[C@H](CCC(=O)O)NC(=O)C(C)(C)NC(=O)[C@@H](N)Cc1c[nH]cn1)C(=O)N[C@@](C)(Cc1ccccc1F)C(=O)N[C@H](C(=O)N[C@@H](CO)C(=O)N[C@@H](CC(=O)O)C(=O)N[C@@H](Cc1ccc(-c2ccccc2)cc1)C(=O)N[C@@H](CCc1ccccc1)C(=O)NCCOCCOCC(=O)NCCOCCOCC(=O)NC[C@H](NC(=O)CCCCCCCCCCCCCCCCC(=O)O)C(=O)O)[C@@H](C)O [4-36, H2N-His-Aib-Glu-Gly-Thr-α-MePhe(2-F)-Thr-Ser-Asp-Bip-Hph-C(O)NH-RY2] (H-H[Aib]EGT[αMePhe(2-F)]TSD[Bip][hPhe][AEEA][AEEA]-{Dap(Nα-HOOC(CH2)16CO)OH})

EC50 [1]: 4.08 nM
potency relative to the parent peptide (1-4), fold less potent: equipotency
SMILES: C[C@@H](O)[C@H](NC(=O)CNC(=O)[C@H](CCC(=O)O)NC(=O)C(C)(C)NC(=O)[C@@H](N)Cc1c[nH]cn1)C(=O)N[C@@](C)(Cc1ccccc1F)C(=O)N[C@H](C(=O)N[C@@H](CO)C(=O)N[C@@H](CC(=O)O)C(=O)N[C@@H](Cc1ccc(-c2ccccc2)cc1)C(=O)N[C@@H](CCc1ccccc1)C(=O)NCCOCCOCC(=O)NCCOCCOCC(=O)NCCOCCOCC(=O)NC[C@H](NC(=O)CCc1ccc(I)cc1)C(=O)O)[C@@H](C)O [4-37, H2N-His-Aib-Glu-Gly-Thr-α-MePhe(2-F)-Thr-Ser-Asp-Bip-Hph-C(O)NH-RY3] (H-H[Aib]EGT[αMePhe(2-F)]TSD[Bip][hPhe][AEEA][AEEA][AEEA]-X2)

SMILES: C[C@@H](O)[C@H](NC(=O)CNC(=O)[C@H](CCC(=O)O)NC(=O)C(C)(C)NC(=O)[C@@H](N)Cc1c[nH]cn1)C(=O)N[C@@](C)(Cc1ccccc1F)C(=O)N[C@H](C(=O)N[C@@H](CO)C(=O)N[C@@H](CC(=O)O)C(=O)N[C@@H](Cc1ccc(-c2ccccc2)cc1)C(=O)N[C@@H](CCc1ccc(OC(=O)NCCOCCOCC(=O)NCCOCCOCC(N)=O)cc1)C(N)=O)[C@@H](C)O [4-38, H2N-His-Aib-Glu-Gly-Thr-α-MePhe(2-F)-Thr-Ser-Asp-Bip-Hph(4-OR4)-C(O)NH2] (H-H[Aib]EGT[αMePhe(2-F)]TSD[Bip][X6]([AEEA-AEEA-NH2])-NH2)
EC50 [1]: 320 nM

SMILES: C[C@@H](O)[C@H](NC(=O)CNC(=O)[C@H](CCC(=O)O)NC(=O)C(C)(C)NC(=O)[C@@H](N)Cc1c[nH]cn1)C(=O)N[C@@](C)(Cc1ccccc1F)C(=O)N[C@H](C(=O)N[C@@H](CO)C(=O)N[C@@H](CC(=O)O)C(=O)N[C@@H](Cc1ccc(-c2ccccc2)cc1)C(=O)N[C@@H](CCc1ccc(OC(=O)NCCOCCOCC(=O)NCCOCCOCC(=O)NC[C@H](NC(=O)CCCCCCCCCCCCCCCCC(=O)O)C(=O)O)cc1)C(N)=O)[C@@H](C)O [4-39, H2N-His-Aib-Glu-Gly-Thr-α-MePhe(2-F)-Thr-Ser-Asp-Bip-Hph(4-OR5)-C(O)NH2] (H-H[Aib]EGT[αMePhe(2-F)]TSD[Bip][X6]([AEEA-AEEA-Dap(Nα-HOOC(CH2)16CO)OH])-NH2)
EC50 [1]: 232 nM

SMILES: C[C@@H](O)[C@H](NC(=O)CNC(=O)[C@H](CCC(=O)O)NC(=O)C(C)(C)NC(=O)[C@@H](N)Cc1c[nH]cn1)C(=O)N[C@@](C)(Cc1ccccc1F)C(=O)N[C@H](C(=O)N[C@@H](CO)C(=O)N[C@@H](CC(=O)O)C(=O)N[C@@H](Cc1ccc(-c2ccccc2)cc1)C(=O)N[C@@H](CCc1ccc(OC(=O)NCCOCCOCC(=O)NCCOCCOCC(=O)NCCOCCOCC(=O)NC[C@H](NC(=O)CCc2ccc(I)cc2)C(=O)O)cc1)C(N)=O)[C@@H](C)O [4-40, H2N-His-Aib-Glu-Gly-Thr-α-MePhe(2-F)-Thr-Ser-Asp-Bip-Hph(4-OR6)-C(O)NH2] (H-H[Aib]EGT[αMePhe(2-F)]TSD[Bip][X6]([AEEA-AEEA-AEEA-X2])-NH2)
EC50 [1]: 49.7 nM

EC50 [1]: 5.4 nM
SMILES: C[C@@H](O)[C@H](NC(=O)CNC(=O)[C@H](CCC(=O)O)NC(=O)C(C)(C)NC(=O)[C@@H](N)Cc1c[nH]cn1)C(=O)N[C@@](C)(Cc1ccccc1F)C(=O)N[C@H](C(=O)N[C@@H](CO)C(=O)N[C@@H](CC(=O)O)C(=O)N[C@@H](Cc1ccc(-c2ccccc2)cc1)C(=O)N[C@@H](Cc1ccc(-c2ccccc2)cc1)C(=O)NCCOCCOCC(=O)NCCOCCOCC(=O)N[C@H](CNC(=O)CCCCCCCCCCCCCCCCC(=O)O)C(N)=O)[C@@H](C)O [4-46, H2N-His-Aib-Glu-Gly-Thr-α-MePhe(2-F)-Thr-Ser-Asp-Bip-Bip-C(O)NH-RY8] (H-H[Aib]EGT[αMePhe(2-F)]TSD[Bip][Bip][AEEA][AEEA][dDap](C18 diacid)-NH2)

EC50 [1]: 0.6 nM
SMILES: C[C@@H](O)[C@H](NC(=O)CNC(=O)[C@H](CCC(=O)O)NC(=O)C(C)(C)NC(=O)[C@@H](N)Cc1c[nH]cn1)C(=O)N[C@@](C)(Cc1ccccc1F)C(=O)N[C@H](C(=O)N[C@@H](CO)C(=O)N[C@@H](CC(=O)O)C(=O)N[C@@H](Cc1ccc(-c2ccccc2)cc1)C(=O)N[C@@H](Cc1ccc(-c2ccccc2)cc1)C(=O)NCCOCCOCC(=O)NCCOCCOCC(=O)NCCOCCOCC(=O)N[C@H](CNC(=O)CCc1ccc(I)cc1)C(N)=O)[C@@H](C)O [4-47, H2N-His-Aib-Glu-Gly-Thr-α-MePhe(2-F)-Thr-Ser-Asp-Bip-Bip-C(O)NH-RY9] (H-H[Aib]EGT[αMePhe(2-F)]TSD[Bip][Bip][AEEA][AEEA][AEEA][dDap](Hydrocinnamoyl(4-I))-NH2)
